One assay deals with NRK-49F. Kind of assay: Stereoselectivity in enzymic hydrolysis by rat cancer NRK49F cells. It is filed as functional.
The species named for assay [1] is Rattus norvegicus. Kind of assay: Stereoselectivity in enzymic hydrolysis by normal rat muscle extracts. In kind it is functional, Muscle tissue.
For assay [2], the species on record is Rattus norvegicus. The assay can be described thus: Stereoselectivity in enzymic hydrolysis by normal rat pancreas extracts. It is filed as functional.
The subject of another assay is ARIP cell line. The assay can be described thus: Stereoselectivity in enzymic hydrolysis by rat cancer ARIP cells. In kind it is functional.
Another assay deals with XC. The assay can be described thus: Stereoselectivity in enzymic hydrolysis by rat cancer XC cells. In kind it is functional.
For assay [3], the species on record is Rattus norvegicus. Kind of assay: Stereoselectivity in enzymic hydrolysis by normal rat liver extracts. It is filed as functional.
Another assay deals with IA-XsSBR cell line. The assay can be described thus: Stereoselectivity in enzymic hydrolysis by rat cancer IA-XsSBR cells. In kind it is functional.
The species entered for assay [4] is Rattus norvegicus. The assay can be described thus: Stereoselectivity in enzymic hydrolysis by normal rat kidney extracts. It is filed as functional.
A further assay concerns U-937. Kind of assay: Stereoselectivity in enzymic hydrolysis by human cancer U937 (histiocytic lymphoma) cells. It is filed as functional.
The subject of the next assay is COLO 320. Kind of assay: Stereoselectivity in enzymic hydrolysis by human cancer COLO 320 (colon adenocarcinoma) cells. It is filed as functional.
The test system of assay [5] is CCRF S-180. The assay can be described thus: Stereoselectivity in enzymic hydrolysis by mouse sarcoma S180 cells. In kind it is functional.
In the next assay the test system is Anr4. The assay can be described thus: Stereoselectivity in enzymic hydrolysis by rat cancer Anr4 cells. It is filed as functional.
For assay [6], the species on record is Rattus norvegicus. Kind of assay: Stereoselectivity in enzymic hydrolysis by normal rat intestine extracts. It is filed as functional.
A further assay deals with MIA PaCa-2. The assay can be described thus: Stereoselectivity in enzymic hydrolysis by human cancer MIA PaCa-2 (pancreatic carcinoma) cells. In kind it is functional.
The subject of assay [7] is CCRF S-180. The assay can be described thus: Stereoselectivity in enzymic hydrolysis of compound by mouse sarcoma S180 cells. In kind it is functional.

From ChEMBL document CHEMBL1151067, “Stereoselectivity in the hydrolysis of synthetic esters by cultured cancer cells and normal tissue extracts of rat” (1994) come the findings set out here.

For `CCOC(=O)C(NC=O)c1ccccc1` (stereo not drawn), the Conversion rate was 2.2% with NRK-49F; 5.9% in the assay filed under Rattus norvegicus [1]; 14.3% in the assay filed under Rattus norvegicus [2]; 1.6% in the assay with ARIP cell line; 1.2% with XC; 2.7% in the assay filed under Rattus norvegicus [3]. Further, the Conversion rate in the assay on IA-XsSBR cell line came to 1.3%; in the assay filed under Rattus norvegicus [4], 7.6%; in the assay with U-937 it was 3.5%; with COLO 320, 3.8%; with CCRF S-180 [5], 3.6%; in the assay on Anr4, 1.2%. In the assay listed under Rattus norvegicus [6], the Conversion rate was 1.4%.

Compound `CCOC(=O)C(OC)c1ccccc1` (stereo not drawn) had a Conversion rate with CCRF S-180 [5] of 4.3%.

With `CCCCCCCCOC(=O)C(C)c1ccccc1` (stereo not drawn), the Conversion rate with CCRF S-180 [5] was determined as 11%.

As for `CCOC(=O)C(Cc1ccccc1)NC(C)=O` (stereo not drawn), the Conversion rate with MIA PaCa-2 was 42%; in the assay with NRK-49F, 35.1%; in the assay listed under Rattus norvegicus [1], 31.9%; in the assay filed under Rattus norvegicus [2] it was 43.8%; in the assay on ARIP cell line, 37.2%; in the assay with XC it was 42%. For the same compound, the Conversion rate in the assay filed under Rattus norvegicus [3] was found to be 48.2%; with IA-XsSBR cell line, 30.5%; in the assay filed under Rattus norvegicus [4], 23.2%; in the assay on U-937 it was 17.5%; in the assay on COLO 320, 13.8%; with CCRF S-180 [5] it was 12.9%. Further, the Conversion rate with Anr4 was found to be 30.6%; in the assay filed under Rattus norvegicus [6] it was 37.3%.

For `CCOC(=O)C(O)c1ccccc1` (stereo not drawn), the Conversion rate in the assay on CCRF S-180 [5] was found to be 21.2%.

Consider `CCOC(=O)C(C)c1ccccc1` (stereo not drawn), for which the Conversion rate with MIA PaCa-2 came to 11.9%; in the assay on NRK-49F, 8.2%; in the assay on CCRF S-180 [7], 18.1%; in the assay filed under Rattus norvegicus [1], 1%; in the assay filed under Rattus norvegicus [2], 1.2%; with ARIP cell line it was 6.9%. Further, the Conversion rate in the assay with XC is on record as 0.6%; in the assay listed under Rattus norvegicus [3], 11.5%; with IA-XsSBR cell line it was 1.4%; in the assay listed under Rattus norvegicus [4], 11.2%; with U-937 it was 1.4%; in the assay on COLO 320 it was 1.2%. For the same compound, the Conversion rate with Anr4 came to 0.5%; in the assay filed under Rattus norvegicus [6], 5%.

Turning to `CCOC(=O)C(C)Oc1ccccc1` (stereo not drawn), the Conversion rate in the assay with MIA PaCa-2 was determined as 35.9%; with NRK-49F, 4.5%; in the assay filed under Rattus norvegicus [1] it was 18%; in the assay listed under Rattus norvegicus [2], 33.3%; with ARIP cell line it was 5.7%; in the assay with XC, 23%. For the same compound, the Conversion rate came to 52.5% in the assay filed under Rattus norvegicus [3]; 12.2% with IA-XsSBR cell line; 53% in the assay listed under Rattus norvegicus [4]; 38.9% with CCRF S-180 [5]; 14.2% with Anr4; 5% in the assay filed under Rattus norvegicus [6].

In turn, `CCOC(=O)C(NC(C)=O)c1ccccc1` (stereo not drawn) displayed a Conversion rate with CCRF S-180 [5] of 4.3%.

Compound `CC(C(=O)OCCC1CCCCC1)c1ccccc1` (stereo not drawn) yielded a Conversion rate with CCRF S-180 [5] of 6.1%.
